The subject of test [1] is Decarboxyl (or Decarboxy2). As to the kind of experiment: Enzymatic hydroxylation followed by decarboxylation to hydroxylated diamino alkanes, conversion by HPLC (protocol A). Type of test: biochemical, Flavobacterium johnsoniae; Chitinophaga pinensis. To be noted: L-lysine or L-ornithine hydroxylated (part V conditions), then PLP, DTT and Decarboxy1 (or Decarboxy2) added, 18h at 37 °C; HPLC after Fmoc-Cl derivatization. How it is done: The conversions were determined by HPLC after Fmoc-Cl derivatization (protocol A). Atlantis T3 (3µm 4.5*150 mm) at 35°C with the gradient 50-86% eluent B (MeCN + 0.1% TFA) and eluent A (H2O + 0.1% TFA) in 20 min at 1 mL/min […].
L-lysine was converted into (3S)-3-hydroxy-L-lysine by ENZ1 in conditions described in part V.
30 µL pyridoxal 5'-phosphate (PLP) 10 mM, 3 µL dithiothreitol (DTT) 100 mM and Decarboxyl (or Decarboxy2) 50 µL 1.5 mg/mL were then added in the reaction medium. The mixture was stirred (1000 rpm) for 18h at 37 °C.
Lysine was converted into (4R)-4-hydroxy-L-lysine in conditions described in part V 30 µL PLP 10 mM, 3 µL DTT 100 mM and Decarboxyl(or Decarboxy2) 50 µL 1.5 mg/mL were then added in the reaction medium to perform decarboxylation. The mixture was stirred (1000 rpm) for 18h at 37 °C.
The mixture was stirred (1000 rpm) for 18h at 37 °C.
Lysine was converted into (3R,4R)-3,4-dihydroxy-L-lysine in conditions described in part V, by cascade reaction with ENZ1 (SEQ NO:1) and ENZ2 (SEQ NO:2).
The volume of the reaction medium was reduced to 180 µL using a speedvac. 26 µL PLP 10 mM, 2.6 µL DTT 100 mM and Decarboxyl (or Decarboxy2) 50 µL (lysat) were then added to perform decarboxylation. The mixture was stirred (1000 rpm) for 18h at 37 °C.

The target in test [2] is T1, ENZ4 SEQ ID NO:4 (Catenulispora acidiphila, UniProt C7Q942).
T1 construct: His6 (hexahistidine, inserted after the initial methionine) (N); made in house; host or cells: E. coli BL21(DE3) plysE
T1 sequence (C7Q942 1-343): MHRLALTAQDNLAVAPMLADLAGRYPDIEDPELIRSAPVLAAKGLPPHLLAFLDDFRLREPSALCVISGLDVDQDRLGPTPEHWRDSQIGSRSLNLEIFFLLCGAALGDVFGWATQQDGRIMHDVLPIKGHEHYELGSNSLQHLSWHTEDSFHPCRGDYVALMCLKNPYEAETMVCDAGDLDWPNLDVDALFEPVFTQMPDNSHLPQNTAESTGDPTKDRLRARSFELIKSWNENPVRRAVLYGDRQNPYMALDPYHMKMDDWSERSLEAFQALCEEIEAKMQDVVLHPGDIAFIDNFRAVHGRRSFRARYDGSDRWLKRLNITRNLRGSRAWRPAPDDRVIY
Nature of the test: Enzymatic hydroxylation of L-ornithine and L-arginine, 10 mL scale, conversion by HPLC. Type of test: biochemical. Conditions: ENZ4 0.595 mg/mL, without sodium ascorbate, room temperature, 18h; HPLC after FDAA derivatization (protocol B). How it is done: 70 µL of the aqueous phase were withdrawn, diluted with 70 µL of acetonitrile and injected into the HPLC. […]
(§1) Conditions for HPLC analysis: Atlantis® T3 (3 µm 4.5*150 mm) at 35°C with the gradient 50-86% eluent B (MeCN + 0.1% TFA) and eluent A (H2O + 0.1% TFA) in 20 min at 1 mL/min.

The target in test [3] is T2, ENZ2 SEQ ID NO:2 (Flavobacterium johnsoniae, UniProt A5FF23).
T2 construct: His6 (hexahistidine, inserted after the initial methionine) (N); made in house; host or cells: E. coli BL21(DE3) plysE
T2 sequence (A5FF23 1-370): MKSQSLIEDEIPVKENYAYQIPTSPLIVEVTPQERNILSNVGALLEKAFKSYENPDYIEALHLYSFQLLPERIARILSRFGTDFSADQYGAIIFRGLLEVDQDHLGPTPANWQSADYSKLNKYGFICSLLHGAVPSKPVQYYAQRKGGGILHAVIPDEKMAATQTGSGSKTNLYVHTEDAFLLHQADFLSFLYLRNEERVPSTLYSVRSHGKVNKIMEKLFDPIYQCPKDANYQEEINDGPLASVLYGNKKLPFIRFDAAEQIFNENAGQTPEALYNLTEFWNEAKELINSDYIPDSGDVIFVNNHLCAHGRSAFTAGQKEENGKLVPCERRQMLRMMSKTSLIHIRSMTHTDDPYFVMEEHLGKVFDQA
Type of test: biochemical. To be noted: enzyme 0.08 mg/mL, molar ratio α-ketoglutarate/substrate 15/10, Hepes buffer 50 mM pH 7,5, Mohr's salt 1mM, without sodium ascorbate, room temperature, three hours. How it is done:
(§2) Enzymatic reaction medium (0.2 µmole, leq.), borate buffer 0,2M pH 7.7 (80 µL) and Fmoc-Cl solution7.5 mM in acetone (100 µL, 0.75 µmole, 3.75 eq) were hand shaked in a closed 1.50 mL eppendorf for one minute. The aqueous layer was extracted with petroleum ether (3*1 mL) to eliminate excess of Fmoc-Cl. 70 µL of the aqueous phase were withdrawn, diluted with 70 µL of acetonitrile and injected into the HPLC. For substrates with two amine functions, 100 µL of Fmoc-Cl solution 15 mM were used.
as §1
(§3) Enzymes (0.08 mg/mL) were screened against substrates (molar ratio α-ketoglutarate/substrate 15/10) in Hepes buffer 50 mM pH 7,5, with Mohr's salt at 1mM and without sodium ascorbate, at room temperature for three hours. The potential conversions of the substrates were determined by HPLC after Fmoc-Cl derivatization as section III here above.

Test [4] has as its target T3, ENZ3 SEQ ID NO:3 (Chitinophaga pinensis, UniProt C7PLM6).
T3 construct: His6 (hexahistidine, inserted after the initial methionine) (N); made in house; host or cells: E. coli BL21(DE3) plysE
T3 sequence (C7PLM6 1-382): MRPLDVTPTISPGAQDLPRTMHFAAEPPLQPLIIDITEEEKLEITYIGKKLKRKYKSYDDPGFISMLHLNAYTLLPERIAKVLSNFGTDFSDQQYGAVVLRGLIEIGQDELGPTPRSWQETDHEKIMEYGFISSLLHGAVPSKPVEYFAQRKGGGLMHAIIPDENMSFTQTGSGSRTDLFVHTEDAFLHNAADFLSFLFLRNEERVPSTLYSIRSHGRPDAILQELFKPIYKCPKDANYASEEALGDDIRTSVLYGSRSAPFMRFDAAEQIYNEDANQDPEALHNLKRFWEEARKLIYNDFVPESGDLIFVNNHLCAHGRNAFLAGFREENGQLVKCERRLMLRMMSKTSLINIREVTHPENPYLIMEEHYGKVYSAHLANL
Type of test: biochemical. Conditions: enzyme 0.08 mg/mL, molar ratio α-ketoglutarate/substrate 15/10, Hepes buffer 50 mM pH 7,5, Mohr's salt 1mM, without sodium ascorbate, room temperature, three hours. How it is done:
as §2, §1, §3

Test [5] addresses T4, ENZ1 SEQ ID N°1 (Catenulispora acidiphila, UniProt C7QJ42).
T4 construct: His6 (hexahistidine, inserted after the initial methionine) (N); made in house; host or cells: E. coli BL21(DE3) plysE
T4 sequence (C7QJ42 1-358): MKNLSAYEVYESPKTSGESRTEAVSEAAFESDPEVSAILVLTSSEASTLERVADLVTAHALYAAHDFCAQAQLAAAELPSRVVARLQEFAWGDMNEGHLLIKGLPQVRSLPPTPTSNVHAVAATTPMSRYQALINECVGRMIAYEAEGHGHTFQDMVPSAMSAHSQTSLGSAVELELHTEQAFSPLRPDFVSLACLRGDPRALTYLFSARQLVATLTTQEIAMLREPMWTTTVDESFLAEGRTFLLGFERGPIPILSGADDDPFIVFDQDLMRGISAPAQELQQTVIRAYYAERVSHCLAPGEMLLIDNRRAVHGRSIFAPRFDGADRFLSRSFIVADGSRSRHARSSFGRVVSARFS
As to the kind of experiment: Substrate selectivity screening of hydroxylase (conversion by HPLC after Fmoc-Cl derivatization). Conditions: enzyme 0.08 mg/mL, molar ratio α-ketoglutarate/substrate 15/10, Hepes buffer 50 mM pH 7,5, Mohr's salt 1mM, without sodium ascorbate, room temperature, three hours. Format: biochemical. How it is done:
as §2, §1, §3

Test [6] has as its target T1, ENZ4 SEQ ID NO:4. The description is as above. Type of test: biochemical. To be noted: enzyme 0.08 mg/mL, molar ratio α-ketoglutarate/substrate 15/10, Hepes buffer 50 mM pH 7,5, Mohr's salt 1mM, without sodium ascorbate, room temperature, three hours. How it is done: as §2, §1, §3
In test [7] the target is T5, ENZ5 (SEQ ID NO:9) (Niastella koreensis, UniProt G8T8D0).
T5 construct: His6 (hexahistidine, inserted after the initial methionine) (N); made in house; host or cells: E. coli BL21(DE3) plysE
T5 sequence (G8T8D0 1-371): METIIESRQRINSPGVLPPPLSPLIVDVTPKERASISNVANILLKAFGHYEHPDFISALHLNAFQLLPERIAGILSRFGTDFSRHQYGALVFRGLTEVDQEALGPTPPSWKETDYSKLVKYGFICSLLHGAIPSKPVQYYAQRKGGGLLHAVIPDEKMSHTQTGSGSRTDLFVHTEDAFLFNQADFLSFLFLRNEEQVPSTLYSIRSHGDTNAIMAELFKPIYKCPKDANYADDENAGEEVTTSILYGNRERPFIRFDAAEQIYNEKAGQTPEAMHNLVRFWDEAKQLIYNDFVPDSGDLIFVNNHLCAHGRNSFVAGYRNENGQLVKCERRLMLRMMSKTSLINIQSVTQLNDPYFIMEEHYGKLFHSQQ
Nature of the test: Hydroxylation capability, HPLC analysis of reaction media after derivatization. Type of test: biochemical. How it is done:
as §3
(§4) The hydroxylation capability of two other enzymes, namely ENZ6 (SEQ ID NO:10) and ENZ5 (SEQ ID NO:9) were also assessed. The amino sequence of ENZ6 has 79% of amino acid identity with SEQ ID NO:2 of ENZ2 while the amino sequence of ENZ5 has 72% of amino acid identity with SEQ ID NO:3 of ENZ3. […] As shown in part VI, ENZ6 and ENZ5 provide (4R)-hydroxy-L-lysine from L-lysine similarly to ENZ2 and ENZ3. Thus ENZ6 and ENZ5 are likely to have the same substrate selectivity and provide similar products as ENZ2 and ENZ3.

In test [8] the target is T6, ENZ6 (SEQ ID NO:10) (Flavobacterium sp., UniProt J3BZS6).
T6 construct: His6 (hexahistidine, inserted after the initial methionine) (N); made in house; host or cells: E. coli BL21(DE3) plysE
T6 sequence (J3BZS6 whole entry): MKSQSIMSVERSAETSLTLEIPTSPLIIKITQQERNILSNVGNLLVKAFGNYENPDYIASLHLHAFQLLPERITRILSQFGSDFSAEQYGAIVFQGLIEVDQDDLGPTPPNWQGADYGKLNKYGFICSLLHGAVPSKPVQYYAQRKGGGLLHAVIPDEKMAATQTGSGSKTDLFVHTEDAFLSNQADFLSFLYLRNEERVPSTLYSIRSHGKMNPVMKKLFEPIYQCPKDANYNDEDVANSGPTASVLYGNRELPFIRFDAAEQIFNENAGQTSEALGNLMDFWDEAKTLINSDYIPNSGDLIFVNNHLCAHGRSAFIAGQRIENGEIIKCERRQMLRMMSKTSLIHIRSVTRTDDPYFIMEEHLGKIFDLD
Described as above. Type of test: biochemical. How it is done:
as §3, §4

As to `NCCC[C@H](O)CN` [(2S)-1,5-diamino-2-pentanol], the Conversion in test [1] is reported as over 95%.

For the molecule `N=C(N)NCCC[C@H](N)C(=O)O` [L-arginine], the “conversion of L-arginine into hydroxylated product” value in test [2] was 50%. For the same molecule, the “potential conversions of the substrates, ENZ2 SEQ ID NO:2” value in test [3] was “negative”. The “potential conversions of the substrates, ENZ3 SEQ ID NO:3” value in test [4] is recorded as “negative”. In test [5], the “potential conversions of the substrates, ENZ1 SEQ ID N°1” value was “negative”. Moreover, the “potential conversions of the substrates, ENZ4 SEQ ID NO:4” value in test [6] is “positive”.

With `NCC[C@H](O)CN` [(2S)-1,4-diamino-2-butanol], the Conversion in test [1] turned out to be 50%.

On to `NCCC[C@H](N)C(=O)O` [L-ornithine], for which the “hydroxylation capability of ENZ5” value in test [7] was “not able to convert”. The “hydroxylation capability of ENZ6” value in test [8] is listed as “not able to convert”.

Molecule `NCC[C@@H](O)[C@H](O)CN` [(2R,3R)-1,5-diamino-2,3-pentanediol] came in with a Conversion in test [1] of over 90%.

The molecule `NCCC(O)CCN` [1,5-diamino-3-pentanol] registered a Conversion in test [1] of 100%.

For the molecule `CC(=O)N[C@@H](CCCNC(=N)N)C(=O)O` [Nα-acetyl-L-arginine], in test [3], the “potential conversions of the substrates, ENZ2 SEQ ID NO:2” value is listed as “negative”. The “potential conversions of the substrates, ENZ3 SEQ ID NO:3” value in test [4] is on record as “negative”. Moreover, the “potential conversions of the substrates, ENZ1 SEQ ID N°1” value in test [5] is recorded as “negative”. For the same molecule, the “potential conversions of the substrates, ENZ4 SEQ ID NO:4” value in test [6] is recorded as “negative”.
